From EP2540303A1, “Divalent cation containing compositions and methods for treating and/or preventing enzymatic irritation” (Johnson & Johnson Consumer Companies Inc., priority 2011, dated 2013)
Several values for one entry are separate records, joined by “and”; a condition that tells them apart may be missing. Equal values may be shown once.

Key:
trypsin [1] = biological target: T1, trypsin (Bos taurus, UniProt P00760); conditions: at low concentrations, i.e., around 0.001 M; cited from earlier work
T1 sequence (P00760 24-246): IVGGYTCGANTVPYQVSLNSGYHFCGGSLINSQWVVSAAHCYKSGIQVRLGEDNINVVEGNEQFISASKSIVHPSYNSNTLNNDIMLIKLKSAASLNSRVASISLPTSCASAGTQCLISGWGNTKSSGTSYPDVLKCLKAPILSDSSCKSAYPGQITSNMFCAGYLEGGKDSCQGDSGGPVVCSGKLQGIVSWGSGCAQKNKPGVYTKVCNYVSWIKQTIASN

trypsin [2] = experiment: Trypsin inhibition (EnzChek protease assay kit), divalent cation salts with and without talc; format: biochemical; conditions: for % synergistic activity relative to hypothetic additive value: (with talc value minus additive value) divided by additive value; for Salt alone trypsin inhibition activities (%): no talc
Description: (§1) The objective of the following experiment was to determine whether and to what extent adding a divalent cation to talc inhibited trypsin activity in an in vitro assay. The inhibition of trypsin-induced cleavage of a fluorescent casein peptide was measured using the EnzChek™ protease assay kit, following manufacturer's instructions (EnzChek™ Protease Assay Kits Product Information, Revised; Molecular Probes, Eugene OR). […] Trypsin working solution (Sigma, St. Louis, MO, unit/mL) was prepared in a portion of the digestion buffer provided in the assay kit (the digestion buffer provided in the assay kit comprises, in total, 260mL of 200nM Tris-HCl, pH7.8, containing 40mM sodium azide). Stock solution of BODIPY FL casein (the trypsin substrate, comprising a casein derivative labeled with a pH-insensitive green fluorescent protein, mg/mL) was prepared by adding 0.2 mL of phosphate buffered saline (PBS) to the substrate vials provided in kit, allowing sufficient time at room temperature for the substrate to dissolve fully (each substrate vial provided in the kit contains 200µg of BODIPY FL casein lyophilized from phosphate-buffered saline (PBS)). The final substrate working solution (10 microgram/mL) was prepared by dilution of 0.2 mL of the stock solution of BODIPY FL with 19.8 mL of digestion buffer (pH 7.8). To detect enzyme activity, 100µL of the BODIPY FL casein working solution was added to 50µL of trypsin working solution (containing 100U of trypsin) and 50µl of the solution of the required test material (if required) . Following incubation of the trypsin, with or without the test materials, with the BODIPY fluorescent casein substrate, at room temperature for one hour, fluorescence was measured (excitation 485 nm /emission 530 nm) using a SpectraMax microtiter plate reader (Molecular Devices Corporation, Sunnyvale, CA) and Softmax Pro software (Molecular Devices Corporation). Each experiment was performed in three replicates. The percentage activity is quoted with comparison to results obtained from the assay performed without the addition of a test substrate.

trypsin [3] = experiment: Inhibition of trypsin-induced cleavage of fluorescent casein (EnzChek protease assay kit), salts in PBS; format: biochemical; conditions: acetate monohydrate
Description: as §1, with “The” for “The objective of the following experiment was to determine whether and to what extent adding a divalent cation to talc inhibited trypsin activity in an in vitro assay. The”, “Following incubation of the trypsin, with or without the test materials, with the BODIPY fluorescent casein substrate, at room temperature for one hour, fluorescence was measured (excitation 485 nm /emission 530 nm) using a SpectraMax microtiter plate reader (Molecular Devices Corporation, Sunnyvale, CA) and Softmax Pro software (Molecular Devices Corporation). Each experiment was performed in three replicates. The percentage activity is quoted with comparison to results obtained from the assay performed without the addition of a test substrate.” left out

trypsin [4] = experiment: Trypsin inhibition (EnzChek protease assay kit), zinc oxide/acid mixtures and zinc oxide containing formulations; format: biochemical; conditions: Table 5
Description: The objective of the following experiment was to determine whether and to what extent adding an acid to a formulation containing zinc oxide had on inhibition of trypsin activity in an in vitro assay. The inhibition of trypsin-induced cleavage of a fluorescent casein peptide was measured using the EnzChek^TM protease assay kit, following manufacturer's instructions (EnzChek^TM Protease Assay Kits Product Information, Revised; Molecular Probes, Eugene OR). Mixtures of zinc oxide and acid at different concentrations were prepared in lx PBS (pH 7.4) and their pH was recorded as listed in the Tables 5-8. Trypsin working solution (Sigma, St. Louis, MO, unit/mL) was prepared in a portion of the digestion buffer provided in the assay kit (the digestion buffer provided in the assay kit comprises, in total, 260mL of 200nM Tris-HCl, pH7.8, containing 40mM sodium azide). Stock solution of BODIPY FL casein (the trypsin substrate, comprising a casein derivative labeled with a pH-insensitive green fluorescent proten, mg/mL) was prepared by adding 0.2 mL of phosphate buffered saline (PBS) to the substrate vials provided in kit, allowing sufficient time at room temperature for the substrate to dissolve fully (each substrate vial provided in the kit contains 200µg of BODIPY FL casein lyophilized from phosphate-buffered saline (PBS)). The final substrate working solution (10 microgram/mL) was prepared by dilution of 0.2 mL of the stock solution of BODIPY FL with 19.8 mL of digestion buffer (pH 7.8). To detect enzyme activity, 100µL of the BODIPY FL casein working solution was added to 50µL of trypsin working solution (containing 100U of trypsin) and 50 µl of the solution of the required test material (if required). Following incubation of the trypsin, with or without the test materials (50 µl), with the BODIPY fluorescent casein substrate, at room temperature for one hour, fluorescence was measured (excitation 485 nm /emission 530 nm) using a SpectraMax microtiter plate reader (Molecular Devices Corporation, Sunnyvale, CA) and Softmax Pro software (Molecular Devices Corporation). Each experiment was performed in three replicates.
For preparations, samples were diluted in lx PBS at 1:10 ratio and subjected to centrifugation at 13,200 rpm for 1 min using Eppendorf Centrifuge (Model 5415D, Eppendorf AG, Hamburg, Germany) to remove the solid formulation ingredients. The supernatants (50 µl) were used for trypsin inhibitory activity analyses as described above. For preparations, samples were diluted in 10, or 20 or 40 % ethanol and subjected to centrifugation at 13,200 rpm for 1 min using Eppendorf Centrifuge (Model 5415D, Eppendorf AG, Hamburg, Germany) to remove the solid formulation ingredients. The supernatants (50 µl) were used for trypsin inhibition assay. […] The percentage activity is quoted with comparison to results obtained from the assay performed without the addition of a test substrate.
For the above study, the results are an average of three independent experiments, wherein the samples, which were diluted at 1:10 ratio in lx PBS solutions containing 10%, 20% or 40% ethanol, were tested in triplicates.

[5] = Table 3, salt alone plus talc alone (8.55%), all at 0.1% (g/mL)
[6] = Table 4, 0.1% MgCl2 and 1% talc
[7] = Table 4, 0.5% MgCl2 and 1% talc

For [Ag+] [Ag+], the “inhibition of the esterase activity of trypsin” value (“inhibition … of trypsin” below) (trypsin [1]) is given as “inhibited the esterase activity of trypsin”.

For CC(=O)[O-].CC(=O)[O-].O.[Ca+2] [Calcium acetate monohydrate], the “% synergistic activity relative to hypothetic additive value” (trypsin [2]; Table 3, all at 0.1% (g/mL)) was 3.10%, the “Salt alone trypsin inhibition activities (%)” value (trypsin [2]; Table 3, salt 0.1% (g/mL)) was 15.31% and the “Hypothetically calculated additive value of salt and Talc trypsin inhibition activities (%)” value (trypsin [2]; [5]) was 23.86%.

For [Ca+2].[Cl-].[Cl-] [Calcium chloride], the “% synergistic activity relative to hypothetic additive value” (trypsin [2]; Table 3, all at 0.1% (g/mL)) was -0.26%, the “Salt alone trypsin inhibition activities (%)” value (trypsin [2]; Table 3, salt 0.1% (g/mL)) was 17.95% and the “Hypothetically calculated additive value of salt and Talc trypsin inhibition activities (%)” value (trypsin [2]; [5]) was 26.50%.

For CC(=O)[O-].CC(=O)[O-].O.[Cu+2] [Copper (II) acetate monohydrate], the “% Trypsin inhibitory activity” value (trypsin [3]) was 66.53% and 95.17%.

In the case of [Cu+2] [Cu++], the “inhibition … of trypsin” value (trypsin [1]) is listed as “inhibited the esterase activity of trypsin”.

In the case of [Hg+2] [Hg++], the “inhibition … of trypsin” value (trypsin [1]) is given as “inhibited the esterase activity of trypsin”.

With O.O.O.O.[Cl][Fe][Cl] [Iron (II) chloride tetrahydrate] the “% synergistic activity relative to hypothetic additive value” (trypsin [2]; Table 3, all at 0.1% (g/mL)) was -12.35%, the “Salt alone trypsin inhibition activities (%)” value (trypsin [2]; Table 3, salt 0.1% (g/mL)) was 65.07% and the “Hypothetically calculated additive value of salt and Talc trypsin inhibition activities (%)” value (trypsin [2]; [5]) was 73.62%.

For CC(=O)[O-].CC(=O)[O-].O.O.O.O.[Mg+2] [Magnesium acetate tetrahydrate], the “% synergistic activity relative to hypothetic additive value” (trypsin [2]; Table 3, all at 0.1% (g/mL)) was 90.09%, the “Salt alone trypsin inhibition activities (%)” value (trypsin [2]; Table 3, salt 0.1% (g/mL)) was 0.83% and the “Hypothetically calculated additive value of salt and Talc trypsin inhibition activities (%)” value (trypsin [2]; [5]) was 9.38%.

For [Cl-].[Cl-].[Mg+2] [Magnesium chloride], the “% synergistic activity relative to hypothetic additive value” (trypsin [2]; Table 3, all at 0.1% (g/mL)) was 50.75%, the “Salt alone trypsin inhibition activities (%)” value (trypsin [2]; Table 3, salt 0.1% (g/mL)) was 4.75% and the “Hypothetically calculated additive value of salt and Talc trypsin inhibition activities (%)” value (trypsin [2]; [5]) was 13.30%. The “With 1% Talc trypsin inhibition activities (%)” value (trypsin [2]; Table 4, 0.1% MgCl2 (g/mL) with 1% talc) was 25.43%, the “Salt alone trypsin inhibition activities (%)” value (trypsin [2]; Table 4, 0.1% MgCl2 (g/mL)) was 9.02% and the “% synergistic activity relative to hypothetical additive value” (trypsin [2]; [6]) was 104.42%. For the same compound, the “Hypothetically calculated additive value of salt and Talc trypsin inhibition activities (%)” value (trypsin [2]; [6]) was 12.44%, the “With 1% Talc trypsin inhibition activities (%)” value (trypsin [2]; Table 4, 0.5% MgCl2 (g/mL) with 1% talc) was 32.84% and the “Salt alone trypsin inhibition activities (%)” value (trypsin [2]; Table 4, 0.5% MgCl2 (g/mL)) was 19.51%. The “% synergistic activity relative to hypothetical additive value” (trypsin [2]; [7]) was 43.22%, the “Hypothetically calculated additive value of salt and Talc trypsin inhibition activities (%)” value (trypsin [2]; [7]) was 22.93% and the “With 1% Talc trypsin inhibition activities (%)” value (trypsin [2]; Table 4, 1% MgCl2 (g/mL) with 1% talc) was 40.42%. For the same compound, the “Salt alone trypsin inhibition activities (%)” value (trypsin [2]; Table 4, 1% MgCl2 (g/mL)) was 22.13%, the “% synergistic activity relative to hypothetical additive value” (trypsin [2]; Table 4, 1% MgCl2 and 1% talc) was 58.20% and the “Hypothetically calculated additive value of salt and Talc trypsin inhibition activities (%)” value (trypsin [2]; Table 4, 1% MgCl2 and 1% talc) was 25.55%. The “trypsin inhibition (in words)” value (trypsin [2]; combination of talc and magnesium chloride) was “synergistic increase in trypsin inhibition” and the “trypsin inhibitory activity (in words)” value (trypsin [2]; talc or magnesium chloride alone) was “moderate to low levels of trypsin inhibitory activity”.

With CC(=O)[O-].CC(=O)[O-].[Zn+2] [Zinc acetate dihydrate] the “% synergistic activity relative to hypothetic additive value” (trypsin [2]; Table 3, all at 0.1% (g/mL)) was -15.70%, the “Salt alone trypsin inhibition activities (%)” value (trypsin [2]; Table 3, salt 0.1% (g/mL)) was 62.84% and the “Hypothetically calculated additive value of salt and Talc trypsin inhibition activities (%)” value (trypsin [2]; [5]) was 71.39%.

For [Cl-].[Cl-].[Zn+2] [Zinc chloride], the “% synergistic activity relative to hypothetic additive value” (trypsin [2]; Table 3, all at 0.1% (g/mL)) was -13.01%, the “Salt alone trypsin inhibition activities (%)” value (trypsin [2]; Table 3, salt 0.1% (g/mL)) was 81.07% and the “Hypothetically calculated additive value of salt and Talc trypsin inhibition activities (%)” value (trypsin [2]; [5]) was 89.62%.

For [Zn+2] [Zn++], the “inhibition … of trypsin” value (trypsin [1]) is listed as “to a lesser extent”.

With [O]=[Zn] [ZnO, zinc oxide] the “% Trypsin inhibitory activity” value (trypsin [4]; 0.1% ZnO, 0.01 % acetic acid, pH 7.28) was 1.85+/-1.34%, the “% Trypsin inhibitory activity” value (trypsin [4]; 0.1% ZnO, 0.05% acetic acid, pH 6.03) was 49.16+/-1.43% and the “% Trypsin inhibitory activity” value (trypsin [4]; 0.1% ZnO, No acetic acid, pH 7.61) was -2.6+/-2.76%. The “% Trypsin inhibitory activity” value (trypsin [4]; 1% ZnO, 0.01 % acetic acid, pH 7.85) was 15.82+/-1.68%, the “% Trypsin inhibitory activity” value (trypsin [4]; 1% ZnO, 0.05% acetic acid, pH 6.08) was 58.19+/-0.73% and the “% Trypsin inhibitory activity” value (trypsin [4]; 1% ZnO, No acetic acid, pH 8.07) was 5.40 +/- 1.24%. For the same compound, the “trypsin inhibitory activity (in words)” value (trypsin [4]; mixtures of zinc oxide and acetic acid) was “have trypsin inhibitory activity, which is dose-dependent” and the “protease activity (in words)” value (trypsin [4]; zinc oxide without acid) was “minimal protease activity”.

In the case of CC(=O)O [acetic acid], the “% Trypsin inhibitory activity” value (trypsin [4]; No ZnO, 0.01 % acetic acid, pH 6.84) is reported as -11.18+/-2.61% and the “% Trypsin inhibitory activity” value (trypsin [4]; No ZnO, 0.05% acetic acid, pH 4.75) is reported as 25.81+/-2.13%.
